Structures can show the parent of a compound that is named as a salt.
Legend:
[1] = system: MCF7 cells (breast cancer stem cell, mammosphere); experiment: Measurement of effect of inhibiting mammosphere formation; assay type: cell-based, human; conditions: MCF7, 8 days; for Number of Mammospheres: size 50 um or more
Description: The cancer stem cells refer to cancer cells that have self-regeneration or differentiation capacity which is characteristically innate to stem cells. Here, the cancer stem cells show resistance to conventional anticancer therapy and poor prognosis. Therefore, the biguanide derivative has an effect of inhibiting cancer recurrence by inhibiting formation and proliferation of cancer stem cells, especially, breast cancer stem cells (mammosphere). Accordingly, the effect of the biguanide derivative of inhibiting breast cancer stem cell (mammosphere) formation was measured in an MCF7 cell line derived from human breast cancer forming mammospheres, and simple experimental methods are described, as follows.
MCF7 cells derived from human breast cancer were cultured (culture temperature: 37° C., pH: 7.0 to 7.4) in a DMEM medium supplemented with 10% (v/v) fetal bovine serum (commercially available from Gibco Life Technologies (US)) so that the MCF7 cells could grow to approximately 80% confluency and used in an experiment to determine an ability to form mammospheres. After MCF7 cells were made to single cells and the number of cell was counted, MCF7 cells were put in to a 24-well plate at 2,000 cells/well. […] Also, a culture media for forming mammospheres was prepared so that a serum-free DMEM/F12 medium could include 2% B27 (commercially available from Invitrogen), 20 ng/ml EGF (commercially available from Sigma), 5 μg/ml insulin (commercially available from Sigma) and 1 μg/ml hydrocortisone (commercially available from Sigma). Cells were cultured in a CO2 incubator for 24 hours and treated with each of the compounds synthesized in the examples at contents of 0.1 μM, 1 μM, 5 μM and 10 μM. Then, the cultured cells were added to the culture media for forming mammospheres so that a final volume of the culture broth could be adjusted to 1 ml. The cells were treated with the same concentrations of phenformin hydrochloride as the control and cultured in a CO2 incubator for 8 days. Thereafter, the mammosphere-forming efficiency and size of the cells were observed. After 8 days, the number of mammospheres having a size of 50 um or more was determined to calculate the mammosphere-forming efficiency (MFE (%)). The MFE (%) is calculated according to the following Equation 1.
When the cells were cultured for 8 days, MFE (%) of the cells on a plate treated with the phenformin hydrochloride and the compounds synthesized in the examples was compared with MFE (%) of the cells on a plate that was not treated with the compounds. The results are listed as the mammosphere formation inhibition rate (%) in the following Table 4, and the mammosphere-forming efficiencies of the respective compounds are shown in FIG. 1.

Snail = experiment: EMT inhibitory effect by inhibition of Snail expression (immunoblotting) in MCF7 cells; assay type: cell-based, human; conditions: MCF7, 48 hours, untreated control = 100%
Procedure: Cells undergoing EMT owing to various cytokines and growth factors can acquire motility and thus move a distance to form tumors in new tissues. Therefore, the metastasis of cancer cells can be inhibited by controlling expression of EMT-related transcription factors to hinder EMT. Based on these facts, the activities of biguanide derivatives that inhibit Snail expression, which is a transcription factor inducing EMT in the MCF7 cell line derived from human breast cancer, were measured and simple experimental methods are described, as follows.
MCF7 cells derived from human breast cancer (commercially available from Korean Cell Line Bank) were cultured in a DMEM medium supplemented with 10% (v/v) fetal bovine serum (commercially available from Gibco Life Technologies (US)), put into a 6-well plate so that the number of cultured cells could amount to approximately 5×10^5 cells per well, and then incubated in an incubator supplied with 5% CO2 (culture temperature: 37° C., pH: 7.0 to 7.4). The culture media were treated with phenformin hydrochloride and the compounds synthesized in the examples at contents of 1 μM and 10 μM, respectively, and then incubated for 48 hours. Metformin hydrochloride was used as the control, and the cells were treated with 1 mM and 10 mM metformin hydrochloride. After 48 hours, the cells were lysed in a cell lysis buffer containing 10 mM Tris HCl (pH7.4), 100 mM NaCl, 1 mM EDTA, 1 mM EGTA, 1 mM NaF, 20 mM Na4P2O7, 2 mM Na3VO4, 1% TritonX-100, 10% glycerol, 0.5% deoxycholate and 1 mM PMSF. Then, 25 μg of the cell lysate was electrophoresized in an SDS-PAGE gel, and then transferred to a […] membrane (commercially available from Amersham Life Science). The membrane reacted with rat monoclonal anti-human Snail (commercially available from Cell signaling Technology) or mouse monoclonal anti-β-actin (commercially available from Santa cruz Biotechnology), and unbound antibodies were removed. In this case, anti-β-actin was used as the antibody to ensure that the amount of proteins loaded into the SDS-PAGE gel is identical. The membrane was reacted again with a secondary antibody, anti-rat IgG (commercially available from Cell signaling Technology) or anti-mouse IgG (commercially available from Santa Cruz Biotechnology). Finally, the antibody bound to the membrane was detected using an ECL Plus system (commercially available from Amersham Life Science). Also, the expression level of Snail with respect to β-actin was analyzed using a Scion image analysis program. Here, when it was assumed that the expression level of the untreated control was 100%, the expression level of the Snail by treatment with the compounds synthesized in the examples was indicated as a percentage (%).

SMILES: [H]/N=C(/N)N/C(=N/[H])NCCc1ccccc1 [Phenformin hydrochloride, reference compound]
- MFE (%) (mammosphere-forming efficiency) ([1]; 0.1 μM): 4.2%
- Number of Mammospheres ([1]; 0.1 μM): 84 ± 2.8
- MFE (%) (mammosphere-forming efficiency) ([1]; 1 μM): 3.9%
- Number of Mammospheres ([1]; 1 μM): 79 ± 0.7
- MFE (%) (mammosphere-forming efficiency) ([1]; 5 μM): 5.2%
- Number of Mammospheres ([1]; 5 μM): 103 ± 1.4
- MFE (%) (mammosphere-forming efficiency) ([1]; 10 μM): 5.8%
- Number of Mammospheres ([1]; 10 μM): 116 ± 19.1
- inhibition at 0.1 µM ([1]; Homo sapiens, 192 h, 0.1 μM, vs untreated, read-out: Mammosphere formation inhibition rate (%)): 18.4%
- inhibition at 1 µM ([1]; Homo sapiens, 192 h, 1 μM, vs untreated, read-out: Mammosphere formation inhibition rate (%)): 23.8%
- inhibition at 5 µM ([1]; Homo sapiens, 192 h, 5 μM, vs untreated, read-out: Mammosphere formation inhibition rate (%)): 0%
- inhibition at 10 µM ([1]; Homo sapiens, 192 h, 10 μM, vs untreated, read-out: Mammosphere formation inhibition rate (%)): -12.1%
- Snail Expression Rate (%) (Snail; 1 μM): 117.6%
- Snail Expression Rate (%) (Snail; 10 μM): 53.8%
